Test results: patent publication US20240299542A1, “NATURAL KILLER CELLS ENGINEERED TO REDUCE OR ELIMINATE CBL-B AND USES THEREOF” (City of Hope, priority 2021, published 2024)

Test system: IFN-γ
Experiment: Intracellular IFN-γ flow cytometry of siRNA-transduced NK cells
Assay type: cell-based, human
Description: FIGS. 4A-4D depict the results of a study showing that downregulation of Cbl-b increases IFN-γ secretion in IL-15-activated primary human NK cells. (FIG. 4A) RNAseq was conducted using primary human NK cells transduced with either Cbl-b siRNA or Scr siRNA without or with incubation in IL-15 (10 ng/ml) for 16 h (4 donors for each group). […] (FIG. 4B) qRT-PCR was performed to quantify the mRNA levels of IFN-γ (n=6 donors) after IL-15 (10 ng/ml) 6 h stimulation. (FIG. 4C) The percentage of intracellular IFN-γ+ cells in un-transduced NK cells or those transduced with Cbl-b siRNA or Scr siRNA, each activated with IL-15 (10 ng/ml) for 24 h (11.5% vs 4.338%; P=0.0008; n=5 donors). (FIG. 4D) Supernatants were collected after IL-15 (10 ng/ml) for 24 h and IFN-γ concentrations measured by ELISA (18115 pg/ml vs 882.5 pg/ml; P=0.0099; n=7 donors). Scr-scrambled; *P<0.05, **P<0.01, ***P<0.001 by Student's two-tailed paired t-test or One-way ANOVA; ns, not significant. Data presented as mean±SEM.
FIGS. 9B-9D show intracellular flow cytometric analysis of CD56+ primary human NK cells transduced with Scr siRNA or transduced with Cbl-b siRNA, incubated with IL-18 (10 ng/ml), IL-12 (10 ng/ml) or IL-18 (10 ng/ml) plus IL-12 (10 ng/ml) for 24 h. Scr, scrambled; *P<0.05, ns, not significant. Data are presented as mean±SEM.
Flow cytometry. To determine protein cell surface expression via flow cytometry, cells were stained with monoclonal antibodies at room temperature for 20 minutes and washed with FACS buffer prior to analysis using a Fortessa X-20 flow cytometer (BD Biosciences). For IFN-γ intracellular flow cytometric analysis, […] GolgiPlug (BD Biosciences) was added for 4 h before cell harvest; cells were then permeabilized and fixed using a Cytofix/Cytoperm Fixation/Permeabilization Solution Kit (BD Biosciences), followed by analysis with a Fortessa X-20 flow cytometer. Intracellular flow cytometric analysis of Mertk was performed similarly except that GolgiPlug was not added. Data was analyzed by using Flowjo V10 software (Tree Star, Ashland, OR, USA).
To further explore how Cbl-b regulates the functions of primary human NK cells, we performed RNA-seq analyses using enriched primary NK cells from healthy donors transduced with Cbl-b siRNA or Scr siRNA without or with IL-15 treatment for 16 h (n=4 in each group). […] The intracellular results were supported by assessment IFN-γ secretion into the supernatant, in that IL-15-activated primary human NK cells transduced with Cbl-b siRNA expressed 10-fold higher levels of IFN-γ compared to NK cells transduced with Scr siRNA (FIG. 4D).

In the case of “Cbl-b siRNA: Cbl-b-specific Accell siRNA (Dharmacon), SEQ ID NO:1, CCUUCAUGUUCAGAUGGUU (Accell modified siRNA, pattern not given here)”, the “percentage of IFN-γ+ fraction relative to Scr siRNA” value (IL-12 (10 ng/ml) or IL-12 plus IL-18 (10 ng/ml each) 24 h) was “no significant difference”, the “percentage of intracellular IFN-γ+ cells” value (IL-15 (10 ng/ml) 24 h, n=5 donors) was 11.5% and the “intracellular IFN-γ level relative to Scr siRNA” value (IL-15-activated) was 2.5 fold. The “percentage of IFN-γ+ fraction relative to Scr siRNA” value (IL-18 (10 ng/ml) 24 h) was 2.5 fold.
